Measurements published in patent EP0213571A2, “3-Aminomethyl pyrrol-1-yl-alkyl amines and medicaments containing these compounds” (BASF Aktiengesellschaft, priority 1985, dated 1987).

Test system: Histamin-H₂-Rezeptor
Experiment: Antagonism of the dimaprit-induced fall in blood pressure in the anaesthetised rat, test substance given i.v.
Assay type: in vivo, Ratten (Stamm: Sprague-Dawley, männlich)
Protocol: Sie kann in 1 bis 4 Dosen/Tag aufgeteilt werden.
Zum Nachweis der Histamin-H₂-Rezeptor-blockierenden Wirkung wird folgende Methode angewendet.
Die Applikation der geprüften Substanzen erfolgt intravenös 5 min vor der Dimaprit-Injektion. Als ED 50 % werden die Dosen ermittelt, welche die Dimaprit-Blutdrucksenkung um 50 % hemmen.

SMILES: CN(C)CCCSC(=N)N [Dimaprit, S-[3-(N,N-dimethylamino)propyl]isothio urea]
- Blutdrucksenkungen (Dimaprit 3,16 mg/kg i.v. alone, anaesthetised rats, mean, baseline pressure 100 ± 1, 1 mmHg, N = 70): 27 ± 0,7 mmHg

SMILES: CNC(=NC#N)NCCSCc1nc[nH]c1C [Cimetidin]
- Hemmung der Dimaprit-Blutdrucksenkung (anaesthetised rats (urethane 1,78 g/kg i.p.), substance i.v. 5 min before Dimaprit 3,16 mg/kg i.v.): hemmen diese Dimaprit-Blutdrucksenkung dosisabhängig

SMILES: CNC(=NC#N)NCCCCn1c(C)ccc1C [Verbindung des Beispiels 12]
- Histamin-H₂-Rezeptoren-blockierende Wirkung (result in words, potency compared with Cimetidin, b35 names no test, assigned to the only test described): wesentlich schwächer wirksam als Cimetidin
